{"source": "PubChem BioAssay (NCI)", "assay_in_all_cases": "NCI-60 cell line screen, 48 h", "key": {"[1]": {"tested_on": "786-0 renal"}, "[2]": {"tested_on": "A498 renal"}, "[3]": {"tested_on": "A549 NSCLC"}, "[4]": {"tested_on": "BT-549 breast"}, "[5]": {"tested_on": "CAKI-1 renal"}, "[6]": {"tested_on": "CCRF-CEM leukemia"}, "[7]": {"tested_on": "COLO 205 colon"}, "[8]": {"tested_on": "DU-145 prostate"}, "[9]": {"tested_on": "EKVX NSCLC"}, "[10]": {"tested_on": "HCC-2998 colon"}, "[11]": {"tested_on": "HCT-116 colon"}, "[12]": {"tested_on": "HOP-62 NSCLC"}, "[13]": {"tested_on": "HOP-92 NSCLC"}, "[14]": {"tested_on": "HS 578T breast"}, "[15]": {"tested_on": "HT29 colon"}, "[16]": {"tested_on": "K-562 leukemia"}, "[17]": {"tested_on": "KM12 colon"}, "[18]": {"tested_on": "LOX IMVI melanoma"}, "[19]": {"tested_on": "M14 melanoma"}, "[20]": {"tested_on": "MALME-3M melanoma"}, "[21]": {"tested_on": "MCF7 breast"}, "[22]": {"tested_on": "MDA-MB-231 breast"}, "[23]": {"tested_on": "MDA-MB-435"}, "[24]": {"tested_on": "NCI-H226 lung"}, "[25]": {"tested_on": "NCI-H460 lung"}, "[26]": {"tested_on": "NCI-H522 lung"}, "[27]": {"tested_on": "NCI/ADR-RES ovarian"}, "[28]": {"tested_on": "OVCAR-3 ovarian"}, "[29]": {"tested_on": "OVCAR-4 ovarian"}, "[30]": {"tested_on": "OVCAR-5 ovarian"}, "[31]": {"tested_on": "OVCAR-8 ovarian"}, "[32]": {"tested_on": "PC-3 prostate"}, "[33]": {"tested_on": "RPMI-8226 leukemia"}, "[34]": {"tested_on": "RXF 393 renal"}, "[35]": {"tested_on": "SF-268 CNS"}, "[36]": {"tested_on": "SF-295 CNS"}, "[37]": {"tested_on": "SF-539 CNS"}, "[38]": {"tested_on": "SK-MEL-2 melanoma"}, "[39]": {"tested_on": "SK-MEL-28 melanoma"}, "[40]": {"tested_on": "SK-MEL-5 melanoma"}, "[41]": {"tested_on": "SK-OV-3 ovarian"}, "[42]": {"tested_on": "SN12C renal"}, "[43]": {"tested_on": "SNB-19 CNS"}, "[44]": {"tested_on": "SNB-75 CNS"}, "[45]": {"tested_on": "SR leukemia"}, "[46]": {"tested_on": "SW-620 colon"}, "[47]": {"tested_on": "TK-10 renal"}, "[48]": {"tested_on": "UACC-257 melanoma"}, "[49]": {"tested_on": "UO-31 renal"}}, "note": "Several values for one entry are separate records, joined by “and”; a condition that tells them apart may be missing. Equal values may be shown once.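 1) Cells in 96-well plates. 2) Compound, 48 h, 5 concentrations. 3) Linear interpolation between surrounding doses. 4) Unreached endpoint = highest concentration. Here, GI50 denotes the concentration required for 50% inhibition of growth. TGI: total growth inhibition.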", "data": [{"smiles": "CC(=O)c1cnc2ccc(-c3cc(Cl)c(O)c(Cl)c3)nc2c1NC1CCC(CN(C)C)CC1", "note": "(stereo unspecified)", "values": [{"measurement": "GI50", "setting": "[1]", "value": "52.1 nM and 346 nM"}, {"measurement": "TGI", "setting": "[1]", "value": "289 nM and 1420 nM"}, {"measurement": "GI50", "setting": "[2]", "value": "13.7 nM and 111 nM"}, {"measurement": "TGI", "setting": "[2]", "value": "55.9 nM and 403 nM"}, {"measurement": "TGI", "setting": "[3]", "value": "570 nM and 1450 nM"}, {"measurement": "TGI", "setting": "[4]", "value": "120 nM and 588 nM"}, {"measurement": "GI50", "setting": "[5]", "value": "12.6 nM and 109 nM"}, {"measurement": "TGI", "setting": "[5]", "value": "672 nM and 535 nM"}, {"measurement": "TGI", "setting": "[6]", "value": "240 nM and 1540 nM"}, {"measurement": "GI50", "setting": "[7]", "value": "42.5 nM and 318 nM"}, {"measurement": "TGI", "setting": "[8]", "value": "1080 nM and 1760 nM"}, {"measurement": "GI50", "setting": "[9]", "value": "48.6 nM and 337 nM"}, {"measurement": "GI50", "setting": "[10]", "value": "44.9 nM and 191 nM"}, {"measurement": "GI50", "setting": "[11]", "value": "9.06 nM and 61.3 nM"}, {"measurement": "TGI", "setting": "[11]", "value": "2500 nM and > 10000 nM"}, {"measurement": "GI50", "setting": "[12]", "value": "27.5 nM and 195 nM"}, {"measurement": "TGI", "setting": "[12]", "value": "161 nM and 959 nM"}, {"measurement": "GI50", "setting": "[13]", "value": "11.4 nM and 52.6 nM"}, {"measurement": "TGI", "setting": "[13]", "value": "99 nM and 458 nM"}, {"measurement": "TGI", "setting": "[14]", "value": "107 nM and 739 nM"}, {"measurement": "GI50", "setting": "[15]", "value": "84.4 nM and 436 nM"}, {"measurement": "TGI", "setting": "[15]", "value": "888 nM and 4410 nM"}, {"measurement": "TGI", "setting": "[16]", "value": "2500 nM and > 10000 nM"}, {"measurement": "TGI", "setting": "[17]", "value": "558 nM and 2000 nM"}, {"measurement": "TGI", "setting": "[18]", "value": "264 nM and 1120 nM"}, {"measurement": "TGI", "setting": "[19]", "value": "273 nM and 760 nM"}, {"measurement": "GI50", "setting": "[20]", "value": "48.4 nM and 49.9 nM"}, {"measurement": "TGI", "setting": "[20]", "value": "220 nM and 416 nM"}, {"measurement": "GI50", "setting": "[21]", "value": "17.9 nM and 169 nM"}, {"measurement": "TGI", "setting": "[21]", "value": "224 nM and 695 nM"}, {"measurement": "GI50", "setting": "[22]", "value": "31.6 nM and 185 nM"}, {"measurement": "TGI", "setting": "[22]", "value": "495 nM and 772 nM"}, {"measurement": "GI50", "setting": "[23]", "value": "12.8 nM and 116 nM"}, {"measurement": "TGI", "setting": "[23]", "value": "384 nM and 1160 nM"}, {"measurement": "GI50", "setting": "[24]", "value": "39.5 nM and 81.9 nM"}, {"measurement": "TGI", "setting": "[24]", "value": "359 nM and 608 nM"}, {"measurement": "TGI", "setting": "[25]", "value": "105 nM and 1050 nM"}, {"measurement": "GI50", "setting": "[26]", "value": "4.88 nM and 48 nM"}, {"measurement": "GI50", "setting": "[27]", "value": "53.1 nM and 310 nM"}, {"measurement": "TGI", "setting": "[28]", "value": "78.1 nM and 562 nM"}, {"measurement": "GI50", "setting": "[29]", "value": "40.4 nM and 245 nM"}, {"measurement": "TGI", "setting": "[29]", "value": "324 nM and 2580 nM"}, {"measurement": "GI50", "setting": "[30]", "value": "61.2 nM and 207 nM"}, {"measurement": "TGI", "setting": "[30]", "value": "2500 nM and > 10000 nM"}, {"measurement": "GI50", "setting": "[31]", "value": "28.9 nM and 255 nM"}, {"measurement": "TGI", "setting": "[32]", "value": "2500 nM and 1190 nM"}, {"measurement": "GI50", "setting": "[33]", "value": "45.1 nM and 367 nM"}, {"measurement": "GI50", "setting": "[34]", "value": "35.8 nM and 185 nM"}, {"measurement": "TGI", "setting": "[34]", "value": "93.9 nM and 419 nM"}, {"measurement": "TGI", "setting": "[35]", "value": "189 nM and 1220 nM"}, {"measurement": "GI50", "setting": "[36]", "value": "32.9 nM and 267 nM"}, {"measurement": "TGI", "setting": "[37]", "value": "53.1 nM and 505 nM"}, {"measurement": "GI50", "setting": "[38]", "value": "28.8 nM and 237 nM"}, {"measurement": "TGI", "setting": "[38]", "value": "85.5 nM and 689 nM"}, {"measurement": "GI50", "setting": "[39]", "value": "19.4 nM and 186 nM"}, {"measurement": "TGI", "setting": "[39]", "value": "171 nM and 758 nM"}, {"measurement": "TGI", "setting": "[40]", "value": "55.4 nM and 306 nM"}, {"measurement": "TGI", "setting": "[41]", "value": "111 nM and 987 nM"}, {"measurement": "TGI", "setting": "[42]", "value": "1340 nM and 2270 nM"}, {"measurement": "GI50", "setting": "[43]", "value": "31.1 nM and 230 nM"}, {"measurement": "TGI", "setting": "[43]", "value": "2500 nM and 3820 nM"}, {"measurement": "GI50", "setting": "[44]", "value": "5.15 nM and 33.3 nM"}, {"measurement": "TGI", "setting": "[44]", "value": "36.8 nM and 360 nM"}, {"measurement": "GI50", "setting": "[45]", "value": 5.49, "unit": "nM"}, {"measurement": "TGI", "setting": "[45]", "value": 39.8, "unit": "nM"}, {"measurement": "TGI", "setting": "[46]", "value": "2500 nM and > 10000 nM"}, {"measurement": "GI50", "setting": "[47]", "value": "30.7 nM and 160 nM"}, {"measurement": "TGI", "setting": "[47]", "value": "106 nM and 664 nM"}, {"measurement": "GI50", "setting": "[48]", "value": "54.4 nM and 192 nM"}, {"measurement": "TGI", "setting": "[48]", "value": "234 nM and 783 nM"}, {"measurement": "TGI", "setting": "[49]", "value": "87.7 nM and 508 nM"}]}]}
